Measured values from publication PMC7217877, “N-AS-triggered SPMs are direct regulators of microglia in a model of Alzheimer’s disease” (Nature Communications, 2020).
Like-named read-outs stand apart in the source and are kept apart here.

Key:
SphK1 WT = target: T1, SphK1 WT (Homo sapiens, UniProt Q9NYA1); experiment: filter binding assay of [3H] acetyl-CoA to SphK1 (Supplementary Fig 1f,g); settings: for Km: read-out: KM of acetyl-CoA binding to SphK1
T1 construct: His (N); made in house
From the text: Single point mutations in SphK1 (R56A, R57A, R24A, R185A, D178A, and F192A) and COX2 (S565A, N181A, T564A, and S567A) were generated using the In-Fusion Cloning Kits (Clontech) and ORF cDNA expression plasmids of human SphK1 and COX2 gene (Sino Biological Inc, HG15679-NH and HG12036-NH), according to the manufacturer’s instructions. The forward and reverse primers described in Supplementary Table 4. The SphK1 WT, SphK1 mutants, COX2 WT, and COX2 mutant plasmids were transformed in the One shot TOP 10 competent cell (Invitrogen). The bacteria were grown in Luria-Bertani (LB, Invitrogen) plates supplemented with 50 μg ml^−1 kanamycin (Sigma-Aldrich) at 37 °C. The bacterial cell pellets were resuspended in lysis buffer containing 20 mM sodium phosphate (GE Healthcare), 500 mM NaCl (GE Healthcare), 20 mM imidazole (pH 7.4) (GE Healthcare), 0.2 mg ml^−1 lysozyme (Sigma-Aldrich), 20 μg ml^−1 DNase I (Roche), 1 mM MgCl2 (Sigma-Aldrich), and 1 mM PMSF (Sigma-Aldrich) before being lysed by sonication and clarified by centrifugation at 15,493×g for 10 min. Proteins were purified from the soluble fraction using His-Spin Trap columns (GE Healthcare) and the binding and acetylation assays were performed.
Briefly, SphK1 WT and mutant enzymes (1 mU) were resuspended in 100 μl reaction buffer (20 mM HEPES; pH 7.4, 50 mM NaCl, 10 mM MgCl2, 1 mM EGTA, 0.02% Triton-X100, and 100 μM sphingosine, all from Sigma-Aldrich). […] Briefly, COX2 WT and mutant enzymes (1 mU) were resuspended in 100 μl reaction buffer (20 mM HEPES; pH 7.4, 50 mM NaCl, 10 mM MgCl2, 1 mM EGTA, and 0.02% Triton-X100, all from Sigma-Aldrich). Reactions were initiated by adding [^14C] N-AS (1–200 μM (0.1–20 μCi), ARC UK Ltd, ARC-1024) and incubated at 37 °C for 1 h. The reactions were terminated by adding 100 μl of ice-cold reaction buffer containing 5 mM cold N-AS and immediately filtered through P30 filtermat (Perkin-Elmer), followed by five washes.
The binding velocity was plotted and the Kcat and KM values were calculated from the Michaelis-Menten analysis using the Sigma-plot program (ver 10.0, Systat software Inc.).

APP/PS1 mice = experiment: light-dark test (Supplementary Fig 7j-n); type: in vivo, mouse; settings: N-AS vs APP/PS1
Procedure: Transgenic mouse lines over-expressing the hAPP695swe (APP) and presenilin-1M146V (PS1) mutations were originated from GlaxoSmithKline (Harlow, UK)[32] and maintained as described previously. We purchased 5×FAD mice from Jackson Labs (Stock number. 34840-JAX). Because APP/PS1 and 5xFAD mice show sex differences in disease progression, we used only male mice. To examine possible therapeutic effect of N-AS and aspirin in APP/PS1 mice, the N-AS (30 mg kg^−1, Sigma-Aldrich, 01912) was injected daily s.c. for 8 weeks to 7-months-old APP/PS1 mice until the age of 9 months, and aspirin (2 mg kg^−1, Sigma-Aldrich, A5376)[33] was administrated orally to 7-months-old APP/PS1 mice for 8 weeks. […] Block randomization method was used to allocate the animals to experimental groups. To eliminate the bias, we were blinded in experimental progress such as data collection and data analysis. Mice were housed at temperature of 22 °C and a 12 h day/12 h night cycle with free access to tap water and food pellets. All protocols were approved by the Kyungpook National University Institutional Animal Care and Use Committee. […] Freezing was analyzed for 5 min. […] Overall activity in the box was measured, and the amount of time and distance traveled in the center arena was noted. […] The total number of transitions, latency to first enter the light chamber, distance traveled, and time spent in each chamber were recorded.

[1] = ATP 1000 µM, 100 µM sphingosine
[2] = SphK1 (WT), Supplementary Fig 1g

T1 sequence (Q9NYA1 whole entry): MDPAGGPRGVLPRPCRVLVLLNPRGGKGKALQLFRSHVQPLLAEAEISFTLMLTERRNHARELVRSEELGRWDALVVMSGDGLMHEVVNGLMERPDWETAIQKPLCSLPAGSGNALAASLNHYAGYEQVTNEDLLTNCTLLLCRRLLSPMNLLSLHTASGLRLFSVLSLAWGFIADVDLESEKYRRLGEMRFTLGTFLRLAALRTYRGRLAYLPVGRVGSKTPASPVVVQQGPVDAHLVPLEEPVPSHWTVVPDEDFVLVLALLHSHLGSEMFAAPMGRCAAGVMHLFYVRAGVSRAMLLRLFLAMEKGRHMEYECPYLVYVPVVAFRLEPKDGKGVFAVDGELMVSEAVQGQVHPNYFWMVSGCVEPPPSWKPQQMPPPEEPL

SMILES | Kcat of acetyl-CoA binding to SphK1 (SphK1 WT; ATP 0 µM, 100 µM sphingosine) [s⁻¹] | Kcat of acetyl-CoA binding to SphK1 (SphK1 WT; ATP 10 µM, 100 µM sphingosine) [s⁻¹] | Kcat of acetyl-CoA binding to SphK1 (SphK1 WT; ATP 100 µM, 100 µM sphingosine) [s⁻¹] | Kcat of acetyl-CoA binding to SphK1 (SphK1 WT; [1]) [s⁻¹] | Kcat of acetyl-CoA binding to SphK1 (SphK1 WT; [2]) [s⁻¹] | Km (SphK1 WT; ATP 0 µM, 100 µM sphingosine) [µM] | Km (SphK1 WT; ATP 10 µM, 100 µM sphingosine) [µM] | Km (SphK1 WT; ATP 10 µM, 100 µM sphingosine, listed as acetyl-CoA) [µM] | Km (SphK1 WT; ATP 100 µM, 100 µM sphingosine) [µM] | Km (SphK1 WT; ATP 100 µM, 100 µM sphingosine, listed as acetyl-CoA) [µM] | Km (SphK1 WT; [1]) [µM] | Km (SphK1 WT; ATP 1000 µM, 100 µM sphingosine, listed as acetyl-CoA) [µM] | Km (SphK1 WT; [2]) [µM] | light–dark test (APP/PS1 mice)
CC(=O)SCCNC(=O)CCNC(=O)[C@H](O)C(C)(C)COP(=O)(O)OP(=O)(O)OC[C@H]1O[C@@H](n2cnc3c(N)ncnc32)[C@H](O)[C@@H]1OP(=O)(O)O [Acetyl-CoA, acetyl-CoA] | 0.000282 | 0.000268 | 0.000183 | 0.000138 | 0.000288 | 11 | 24.5 | 24.5 | 35.2 | 35.2 | 39 | 39 | 10.5 | –
CCCCCCCCCCCCC/C=C/[C@@H](O)[C@H](CO)NC(C)=O [N-AS, N-((2S,3R,E)-1,3-Dihydroxyoctadec-4-en-2-yl)acetamide] | – | – | – | – | – | – | – | – | – | – | – | – | – | did not differ between the groups
